In patent US20240269139A1, “COMPOUNDS FOR TARGETED PROTEIN DEGRADATION OF KINASES” (DANA-FARBER CANCER INSTITUTE, INC., priority 2020, published 2024):
Where two headings read alike, the source gives them in different places.

Legend:
Type in all cases: cell-based
[1] = biological target: protein kinases (human kinome) (Homo sapiens, UniProt Q9Y2K2); settings: for logFC: SIK3 (Q9Y2K2)
[2] = biological target: protein kinases (human kinome) (Homo sapiens, UniProt Q15131); settings: for logFC: CDK10 (Q15131-1)
[3] = biological target: protein kinases (human kinome) (Homo sapiens, UniProt Q13164); settings: MAPK7 (Q13164-1)
[4] = biological target: T1, protein kinases (human kinome) (Homo sapiens, UniProt Q08881); settings: for logFC: ITK (Q08881) protein abundance, degrader vs DMSO, down
T1 sequence (Q08881 1-620): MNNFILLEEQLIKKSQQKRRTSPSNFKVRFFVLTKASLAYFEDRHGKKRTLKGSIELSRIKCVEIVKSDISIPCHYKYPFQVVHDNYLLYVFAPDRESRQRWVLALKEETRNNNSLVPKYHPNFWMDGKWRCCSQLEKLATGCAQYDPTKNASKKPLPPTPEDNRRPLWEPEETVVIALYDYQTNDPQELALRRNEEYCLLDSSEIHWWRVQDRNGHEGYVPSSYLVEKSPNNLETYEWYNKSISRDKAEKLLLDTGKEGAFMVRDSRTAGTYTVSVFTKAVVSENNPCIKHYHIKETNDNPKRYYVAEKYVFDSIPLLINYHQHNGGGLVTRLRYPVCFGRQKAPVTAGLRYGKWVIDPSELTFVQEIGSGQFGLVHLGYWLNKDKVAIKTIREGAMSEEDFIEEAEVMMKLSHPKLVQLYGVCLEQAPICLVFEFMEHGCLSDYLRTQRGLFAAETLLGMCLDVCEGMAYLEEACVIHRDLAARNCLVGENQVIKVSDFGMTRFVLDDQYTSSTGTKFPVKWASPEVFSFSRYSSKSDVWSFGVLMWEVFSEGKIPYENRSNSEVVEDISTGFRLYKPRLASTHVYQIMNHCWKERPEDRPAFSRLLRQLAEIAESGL

[5] = biological target: protein kinases (human kinome) (Homo sapiens, UniProt Q9Y4K4); settings: MAP4K5 (Q9Y4K4), experiment wp168
[6] = biological target: protein kinases (human kinome) (Homo sapiens, UniProt Q9NYL2); settings: MAP3K20 Q9NYL2; experiment wp168
[7] = experiment wp016, direction of change down

Sequence of protein kinases (human kinome) (Homo sapiens, UniProt Q9Y2K2) (Q9Y2K2 whole entry): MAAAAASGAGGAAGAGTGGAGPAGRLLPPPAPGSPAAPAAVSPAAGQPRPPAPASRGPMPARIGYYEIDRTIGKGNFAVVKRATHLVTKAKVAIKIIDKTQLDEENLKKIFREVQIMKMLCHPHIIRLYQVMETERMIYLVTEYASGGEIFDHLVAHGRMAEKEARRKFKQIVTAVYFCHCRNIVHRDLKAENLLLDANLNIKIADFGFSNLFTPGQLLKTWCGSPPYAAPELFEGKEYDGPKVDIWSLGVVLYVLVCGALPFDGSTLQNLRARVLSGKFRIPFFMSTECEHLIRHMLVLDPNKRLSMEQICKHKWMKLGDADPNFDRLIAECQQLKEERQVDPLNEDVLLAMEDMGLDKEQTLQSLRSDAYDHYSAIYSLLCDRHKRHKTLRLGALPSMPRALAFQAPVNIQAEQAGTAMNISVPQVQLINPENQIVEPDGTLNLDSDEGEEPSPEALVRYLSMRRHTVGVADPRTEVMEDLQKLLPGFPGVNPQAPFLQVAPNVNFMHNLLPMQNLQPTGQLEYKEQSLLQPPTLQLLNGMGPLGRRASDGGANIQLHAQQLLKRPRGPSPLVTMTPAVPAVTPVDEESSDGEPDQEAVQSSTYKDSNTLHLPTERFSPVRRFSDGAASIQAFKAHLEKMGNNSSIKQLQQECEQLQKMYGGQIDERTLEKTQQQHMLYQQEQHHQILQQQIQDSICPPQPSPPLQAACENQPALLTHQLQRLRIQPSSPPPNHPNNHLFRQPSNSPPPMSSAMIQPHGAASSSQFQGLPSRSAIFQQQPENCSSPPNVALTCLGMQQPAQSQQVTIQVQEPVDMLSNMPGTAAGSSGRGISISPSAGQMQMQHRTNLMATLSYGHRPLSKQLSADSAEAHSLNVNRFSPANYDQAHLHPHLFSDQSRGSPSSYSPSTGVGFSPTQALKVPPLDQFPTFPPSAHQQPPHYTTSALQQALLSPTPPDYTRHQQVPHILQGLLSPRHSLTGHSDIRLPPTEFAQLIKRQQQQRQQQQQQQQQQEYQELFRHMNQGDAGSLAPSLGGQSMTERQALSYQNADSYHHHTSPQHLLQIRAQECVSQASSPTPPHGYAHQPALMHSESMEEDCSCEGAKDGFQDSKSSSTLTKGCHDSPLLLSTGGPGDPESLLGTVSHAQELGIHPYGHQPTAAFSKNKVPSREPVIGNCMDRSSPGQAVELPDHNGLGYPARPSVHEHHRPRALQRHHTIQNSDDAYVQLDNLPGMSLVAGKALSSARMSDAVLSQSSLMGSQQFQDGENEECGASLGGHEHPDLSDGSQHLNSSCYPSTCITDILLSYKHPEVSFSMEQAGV
Sequence of protein kinases (human kinome) (Homo sapiens, UniProt Q15131) (Q15131 whole entry): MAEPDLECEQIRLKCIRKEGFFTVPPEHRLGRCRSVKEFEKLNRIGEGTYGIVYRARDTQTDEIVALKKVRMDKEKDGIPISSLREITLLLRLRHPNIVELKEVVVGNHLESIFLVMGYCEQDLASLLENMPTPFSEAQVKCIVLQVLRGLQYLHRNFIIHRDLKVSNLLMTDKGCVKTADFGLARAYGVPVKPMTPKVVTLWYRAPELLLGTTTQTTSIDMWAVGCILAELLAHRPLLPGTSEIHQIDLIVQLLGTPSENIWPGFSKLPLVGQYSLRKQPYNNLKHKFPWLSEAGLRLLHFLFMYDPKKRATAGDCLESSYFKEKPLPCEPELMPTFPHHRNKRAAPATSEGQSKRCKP
Sequence of protein kinases (human kinome) (Homo sapiens, UniProt Q13164) (Q13164 whole entry): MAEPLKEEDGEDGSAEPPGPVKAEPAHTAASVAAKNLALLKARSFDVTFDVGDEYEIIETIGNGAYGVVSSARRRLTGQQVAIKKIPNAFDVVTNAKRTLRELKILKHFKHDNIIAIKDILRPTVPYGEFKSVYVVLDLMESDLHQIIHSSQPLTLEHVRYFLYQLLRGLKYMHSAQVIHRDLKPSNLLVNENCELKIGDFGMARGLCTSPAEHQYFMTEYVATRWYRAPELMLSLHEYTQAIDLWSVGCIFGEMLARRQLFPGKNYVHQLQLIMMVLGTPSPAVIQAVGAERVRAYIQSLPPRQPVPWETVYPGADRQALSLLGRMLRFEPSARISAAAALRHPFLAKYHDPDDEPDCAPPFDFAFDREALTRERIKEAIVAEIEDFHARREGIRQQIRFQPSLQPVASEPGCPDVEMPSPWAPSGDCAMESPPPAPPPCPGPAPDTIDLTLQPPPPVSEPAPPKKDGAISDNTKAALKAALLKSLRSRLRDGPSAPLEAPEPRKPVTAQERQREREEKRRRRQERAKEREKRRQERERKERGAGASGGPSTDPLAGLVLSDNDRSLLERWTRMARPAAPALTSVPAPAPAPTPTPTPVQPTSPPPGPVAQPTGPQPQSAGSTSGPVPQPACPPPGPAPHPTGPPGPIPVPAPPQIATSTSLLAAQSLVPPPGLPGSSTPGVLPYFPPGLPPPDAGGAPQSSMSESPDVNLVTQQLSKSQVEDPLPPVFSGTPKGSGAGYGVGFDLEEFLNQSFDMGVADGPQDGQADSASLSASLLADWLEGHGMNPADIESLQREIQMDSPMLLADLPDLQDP
Sequence of protein kinases (human kinome) (Homo sapiens, UniProt Q9Y4K4) (Q9Y4K4 whole entry): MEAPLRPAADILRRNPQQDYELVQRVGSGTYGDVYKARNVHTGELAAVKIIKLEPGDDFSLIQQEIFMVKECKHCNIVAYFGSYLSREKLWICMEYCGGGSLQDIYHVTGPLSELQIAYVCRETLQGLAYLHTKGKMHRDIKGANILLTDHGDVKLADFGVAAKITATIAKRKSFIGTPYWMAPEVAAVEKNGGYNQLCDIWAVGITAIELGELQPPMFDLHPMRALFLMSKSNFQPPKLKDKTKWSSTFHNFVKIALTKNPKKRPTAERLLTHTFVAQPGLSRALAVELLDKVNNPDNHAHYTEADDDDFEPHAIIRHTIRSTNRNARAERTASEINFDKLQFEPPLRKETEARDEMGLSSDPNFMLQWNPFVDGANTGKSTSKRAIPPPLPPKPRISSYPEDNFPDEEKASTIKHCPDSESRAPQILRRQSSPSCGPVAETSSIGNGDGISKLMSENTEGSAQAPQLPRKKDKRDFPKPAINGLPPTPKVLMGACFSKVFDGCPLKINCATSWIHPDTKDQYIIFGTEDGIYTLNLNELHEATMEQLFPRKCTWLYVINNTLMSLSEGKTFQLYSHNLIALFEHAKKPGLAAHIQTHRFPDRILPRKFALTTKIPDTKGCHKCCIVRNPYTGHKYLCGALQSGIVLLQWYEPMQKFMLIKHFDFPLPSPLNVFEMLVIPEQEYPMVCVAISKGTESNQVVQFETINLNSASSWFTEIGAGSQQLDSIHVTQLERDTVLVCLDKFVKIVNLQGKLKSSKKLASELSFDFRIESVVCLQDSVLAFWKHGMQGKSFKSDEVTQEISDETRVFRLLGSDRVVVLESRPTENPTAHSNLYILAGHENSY
Sequence of protein kinases (human kinome) (Homo sapiens, UniProt Q9NYL2) (Q9NYL2 whole entry): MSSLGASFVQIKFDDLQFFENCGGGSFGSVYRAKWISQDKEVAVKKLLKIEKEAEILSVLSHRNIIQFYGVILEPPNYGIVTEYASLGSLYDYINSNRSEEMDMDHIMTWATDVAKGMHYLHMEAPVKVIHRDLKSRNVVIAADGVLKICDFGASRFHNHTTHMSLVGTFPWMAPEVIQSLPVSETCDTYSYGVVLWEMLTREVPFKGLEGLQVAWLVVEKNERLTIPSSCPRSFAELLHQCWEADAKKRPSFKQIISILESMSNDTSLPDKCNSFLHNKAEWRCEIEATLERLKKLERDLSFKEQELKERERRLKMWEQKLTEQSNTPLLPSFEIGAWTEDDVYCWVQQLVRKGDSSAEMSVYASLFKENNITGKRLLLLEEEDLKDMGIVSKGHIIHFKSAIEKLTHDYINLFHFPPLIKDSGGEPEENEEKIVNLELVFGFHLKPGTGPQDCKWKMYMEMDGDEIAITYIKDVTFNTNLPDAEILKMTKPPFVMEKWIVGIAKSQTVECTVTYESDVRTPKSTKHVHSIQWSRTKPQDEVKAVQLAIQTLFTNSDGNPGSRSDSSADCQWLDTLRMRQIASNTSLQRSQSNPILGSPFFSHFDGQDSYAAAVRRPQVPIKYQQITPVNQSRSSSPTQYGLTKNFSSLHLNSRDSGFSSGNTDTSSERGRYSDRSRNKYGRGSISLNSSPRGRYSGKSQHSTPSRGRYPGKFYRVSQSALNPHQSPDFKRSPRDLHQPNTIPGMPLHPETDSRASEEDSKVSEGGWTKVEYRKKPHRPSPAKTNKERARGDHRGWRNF

## Cc1cnc(Nc2ccc(N3CCN(CCCCCCC(=O)N[C@H](C(=O)N4C[C@H](O)C[C@H]4C(=O)N[C@@H](C)c4ccc(-c5scnc5C)cc4)C(C)(C)C)CC3)cc2)nc1Nc1cccc(S(=O)(=O)NC(C)(C)C)c1 [JWG.123]
[1]; Experiment wp195
  logFC of SIK3 (Q9Y2K2): −1.322
[1]; experiment wp195
  logFC: −1.322

## Cc1ncsc1-c1ccc([C@H](C)NC(=O)[C@@H]2C[C@@H](O)CN2C(=O)[C@@H](NC(=O)CCCCCN2CCc3cc(Nc4ncc(C5CC5)c(NCCCNC(=O)C5CCC5)n4)ccc3C2)C(C)(C)C)cc1 [BSJ.05.026]
[1]; Experiment wp195
  logFC of SIK3 (Q9Y2K2): −1.186
[1]; experiment wp195
  logFC: −1.186

## CC(C)S(=O)(=O)c1ccccc1Nc1nc(Nc2ccc(N3CCN(CCOCCNC(=O)CNc4cccc5c4C(=O)N(C4CCC(=O)NC4=O)C5=O)CC3)cc2)ncc1Cl (stereo not shown) [SK.3.91]
[2]; experiment wp133, 4 hr
  logFC: −0.544
  logFC of CDK10 (Q15131-1): −0.544
[3]; experiment wp016, 1 uM
  logFC: −0.3924
[3]; experiment wp016, 1 uM, direction down
  logFC: −0.3924
[4]; Experiment wp103
  logFC ITK (Q08881): −1.663
[4]; Experiment wp107
  logFC ITK (Q08881): −1.963
[4]; Experiment wp160, 2 hr
  logFC ITK (Q08881): −0.799
[4]; 2 hr
  logFC: −0.799
[4]; 4 hr
  logFC: −1.783
[4]; experiment wp016
  logFC ITK (Q08881): −2.308
[4]; experiment wp016, 1 uM
  logFC ITK (Q08881): −2.033
[4]; experiment wp016, 1 uM, direction of change down
  logFC ITK (Q08881): −2.033
[4]; [7]
  logFC ITK (Q08881): −2.308
[4]; experiment wp103, direction of change down
  logFC ITK (Q08881): −1.663
[4]; experiment wp107, direction of change down
  logFC ITK (Q08881): −1.963
[4]; experiment wp133, 1 hr
  logFC ITK (Q08881): −0.3741
[4]; experiment wp133, 1 hr, direction of change down
  logFC ITK (Q08881): −0.3741
[4]; experiment wp133, 2 hr
  logFC ITK (Q08881): −0.8321
[4]; experiment wp133, 2 hr, direction of change down
  logFC ITK (Q08881): −0.8321
[4]; experiment wp133, 4 hr
  logFC ITK (Q08881): −1.654
[4]; experiment wp133, 4 hr, direction of change down
  logFC ITK (Q08881): −1.654
[4]; experiment wp160, 4 hr
  logFC ITK (Q08881): −1.783

## Cc1ccc(NC(=O)c2cccc(C(F)(F)F)c2)cc1N1Cc2cnc(Nc3ccc(N4CCN(CCCCC(=O)N[C@H](C(=O)N5C[C@H](O)C[C@H]5C(=O)N[C@@H](C)c5ccc(-c6scnc6C)cc5)C(C)(C)C)CC4)nc3)nc2N(C)C1=O [DB1113]
[5]
  logFC: −1.754
[5]; direction down
  logFC: −1.754
[3]; experiment wp168
  logFC: −0.766
[3]; experiment wp168, direction down
  logFC: −0.766
[6]
  logFC MAP3K20: −1.38
[1]; Experiment wp168
  logFC of SIK3 (Q9Y2K2): −1.602
[1]; experiment wp168
  logFC: −1.602

## CC(C)S(=O)(=O)c1ccccc1Nc1nc(Nc2ccc(N3CCN(CCOCCOCCNC(=O)CNc4cccc5c4C(=O)N(C4CCC(=O)NC4=O)C5=O)CC3)cc2)ncc1Cl (stereo not shown) [TL12.186]
[2]; experiment wp131
  logFC: −0.935
  logFC of CDK10 (Q15131-1): −0.935
[3]; experiment wp137
  logFC: −0.3334
[3]; experiment wp137, direction down
  logFC: −0.3334
[4]; experiment wp016
  logFC ITK (Q08881): −2.342
[4]; [7]
  logFC ITK (Q08881): −2.342
[4]; experiment wp131
  logFC ITK (Q08881): −2.292
[4]; experiment wp131, direction of change down
  logFC ITK (Q08881): −2.292
[4]; experiment wp137
  logFC ITK (Q08881): −1.973
[4]; experiment wp137, direction of change down
  logFC ITK (Q08881): −1.973
